According to PMC4813479, “β-Subunit Binding Is Sufficient for Ligands to Open the Integrin αIIbβ3 Headpiece” (The Journal of Biological Chemistry, 2015):
Values joined by “and” are separate entries in the source; they are usually repeats but may differ in a detail not shown here. Identical values can stand only once. Like-named read-outs stand apart in the source and are kept apart here. Non-standard residues stand in square brackets, D forms with d. Residues, ends and D or L forms follow the SMILES beside them. No end group written: not given here.

Columns and labels:
αIIbβ3 headpiece [1] = molecular target: T1, αIIbβ3 headpiece (Homo sapiens, UniProt P05106+P08514); assay: Fluorescence anisotropy binding assay (saturation and competition with FITC-dodecapeptide); design: increasing the concentration of purified recombinant αIIbβ3 headpiece to saturation; C-terminal α-helical coiled-coil (C); made in house; conditions: for reduction in affinity relative to AGDV: fluorescence anisotropy, Mn2+/Ca2+; for Kd: read-out: KD, competitive binding
Procedure: Binding affinities for different peptide ligands were measured using fluorescence anisotropy as described previously ([12]). Anisotropy is defined as (F‖ − F⊥)/(F‖ + 2F⊥), where F‖ and F⊥are the fluorescence intensities parallel and perpendicular to the excitation plane, respectively. mA units (shown in figures) correspond to 1,000 × anisotropy. […] KD^F* was fitted using one-site, specific binding; i.e. A = Amax × Citg/(KD^F* + Citg), where A represents the anisotropy signal from specific binding, Citg represents the concentration of integrin αIIbβ3 headpiece, and Amax is the maximum anisotropy signal. Background anisotropy obtained by adding an excess of 10 μM tirofiban was subtracted from anisotropy.
I50 values for unlabeled peptides were obtained by least squares fitting. […] All measurements were in 20 mM HEPES, pH 7.5, 150 mM NaCl, 2 mM MnCl2, 0.1 mM CaCl2. The Prism GraphPad program (La Jolla, CA) was used to fit the saturation binding curve, inhibition curves, and I50 values.

[2] = molecular target: T2, CHO cells stably expressing full-length human αIIbβ3 (Homo sapiens, UniProt P05106+P08514); assay: Ligand-induced binding site (LIBS1) epitope expression, flow cytometry; format: cell-based
T2 construct: CHO K1 cells stably transfected with full-length αIIbβ3; expressed in transfected cells; host or cells: CHO K1 cells, stably transfected
Procedure: CHO K1 cells stably transfected with full-length αIIbβ3 ([16]) were incubated at room temperature with serially diluted peptide in 20 mM HEPES, pH 7.4, 150 mM NaCl, 5.5 mM glucose, 1% BSA, 1 mM Mg^2+/Ca^2+, and 10 μg/ml LIBS1 antibody for 30 min. Mixtures were washed twice in the same buffer minus LIBS1. The washed cells were incubated with FITC-conjugated anti-mouse antibody at room temperature for 30 min, washed again, chilled on ice, and subjected to flow cytometry. The dose-response curves were fit, and EC50 values were calculated by Prism GraphPad.

αIIbβ3 headpiece [3] = molecular target: T1, αIIbβ3 headpiece; assay: Dynamic light scattering (DLS) of headpiece with peptide: headpiece opening; conditions: αIIbβ3 headpiece (20 μM) + 1 mM peptide; TBS pH 7.4, 1 mM Mg2+, 1 mM Ca2+, 10 min, 25 °C; headpiece alone 4.69 ± 0.02; triplicate, mean ± S.D.
Procedure: (§1) Digested headpiece was purified by passage through a nickel-nitrilotriacetic acid column ([13]). For Stokes radius measurements, the re-purified headpiece at 10 μM (1 mg/ml by A280) was incubated with 1 mM peptide ligand in 20 mM TBS with 1 mM Mg^2+ and 1 mM Ca^2+ at 25 °C for 30 min and then applied to a Superdex 200 column (GE Healthcare Life Sciences) pre-equilibrated with the same buffer containing 1 mM peptide. Calibration and conversion of elution volume to Stokes radius was as described ([11]). For DLS, 20 μM chymotrypsin-treated, re-purified headpiece was filtered through a 100 nm cutoff membrane (Millipore Ultrafree centrifugal filter), incubated with 1 mM peptide in TBS plus 1 mM Mg^2+/Ca^2+ for 10 min at 25 °C in the cuvette, and read in the Viscotek 802 DLS (Viscotek Corp.). The DLS-derived hydration radii (Rh) were obtained by intensity-based fitting using the OmniSize program for 2–3 independent measurements using the same batch of integrin headpiece sample, but measured in different days. Each measurement was an average of at least fifteen 10-s reads.
(§2) The change in Stokes radius was also measured by size-exclusion chromatography (Fig. 3B).

αIIbβ3 headpiece [4] = molecular target: T1, αIIbβ3 headpiece; assay: Size-exclusion chromatography (Superdex 200) of headpiece with peptide: headpiece opening; conditions: for elution volume of αIIbβ3 headpiece: Superdex 200, 1 mM peptide, buffer alone 12.56 ± 0.01 ml, mean; for Stokes radii, Size-exclusion: αIIbβ3 headpiece (10 μM) + 1 mM peptide, Superdex 200, TBS, 1 mM Mg2+/Ca2+, 25 °C, 30 min, headpiece alone 4.78 ± 0.02, duplicate, mean and difference from mean
Procedure: as §1, §2

αIIbβ3 headpiece [5] = molecular target: T1, αIIbβ3 headpiece; assay: Ligand soaking into closed αIIbβ3 headpiece crystals, conformational state by X-ray structure; design: increasing the concentration of purified recombinant αIIbβ3 headpiece to saturation; C-terminal α-helical coiled-coil (C); made in house; conditions: 4 °C, state 1 closed, state 8 open
Procedure: The αIIbβ3 headpiece was crystallized in the closed conformation with the thigh domain removed ([11]). Briefly, chymotrypsin- and carboxypeptidase-treated αIIbβ3-10E5 Fab complex was concentrated to 10 mg/ml in TBS (20 mM Tris, 150 mM NaCl, pH 7.4) with 1 mM Mg^2+, 1 mM Ca^2+ and crystallized in 11% PEG 8000, 0.2 M ammonium sulfate, 0.1 M Tris-HCl, pH 8.9 at 4 °C ([11]). Crystals were then stabilized with the same crystallization buffer but containing 15% PEG 8000, and glycerol concentration was incremented in 5% steps to 20% for cryoprotection. Finally, crystals were soaked in ligand in the same buffer with defined metal conditions for a specified duration at 4 °C (see Table 1). Diffraction data were collected at beamline ID-23 of the Advanced Photon Source (Argonne, IL). Resolution limit was determined by cross-correlation ([14]). Refinements using Phenix ([15]) were as described previously ([4]).
We soaked AGDV peptide into αIIbβ3 headpiece crystals in the closed conformation (state 1) in 1 mM Mn^2+ and 0.2 mM Ca^2+ and were able to trap four distinct intermediate states during headpiece opening (Table 1). […] Two copies of the αIIbβ3 headpiece complex (molecules 1 and 2) exist in one asymmetric unit ([4]), so we were able to obtain two different conformational states in a single crystal (Table 1). Based on the conformation and position of the moving parts of the βI domain, i.e. the β1-α1 loop, α1-helix, β6-α7 loop, and the ADMIDAS metal, each intermediate (Fig. 4) is assigned a state number between 1 (Fig. 4A) and 8 (Fig. 4B) corresponding to previous RGD-bound intermediates ([4]). AGDV binds in the groove formed between the α- and β-subunits (Fig. 4, C, E, G, and I), but has limited contact with α, because it occupies only a portion (about two-thirds) of the groove occupied by RGD (Fig. 4B). The N-terminal amine of AGDV is >9.0 Å away from Asp-224 of αIIb, which forms salt bridges to the Arg of RGD and the Lys of KQAGDV. Moreover, unlike the extended backbone conformation adopted by RGD (Fig. 4, A and B), the backbone of AGDV is curved (Fig. 4, C, E, G, and I).

αIIbβ3 = conditions: cited from earlier work
From the text: Ro-435054 is a 4-residue peptidomimetic, with an N-terminal amidinobenzoyl, a β-alanine, an L-Asp, and a C-terminal L-Phe (Fig. 7A). […] The high-affinity RGDF peptide ([19]) may be considered both fibrinogen-mimetic and RGD-mimetic. RGDF has the same two C-terminal a ...

[6] = system: fibrinogen binding to platelets; design: method as in PMID 6326808; conditions: read-out: IC50, block of fibrinogen binding to platelets; cited from earlier work

T2 sequence (P08514 32-887 limits assumed): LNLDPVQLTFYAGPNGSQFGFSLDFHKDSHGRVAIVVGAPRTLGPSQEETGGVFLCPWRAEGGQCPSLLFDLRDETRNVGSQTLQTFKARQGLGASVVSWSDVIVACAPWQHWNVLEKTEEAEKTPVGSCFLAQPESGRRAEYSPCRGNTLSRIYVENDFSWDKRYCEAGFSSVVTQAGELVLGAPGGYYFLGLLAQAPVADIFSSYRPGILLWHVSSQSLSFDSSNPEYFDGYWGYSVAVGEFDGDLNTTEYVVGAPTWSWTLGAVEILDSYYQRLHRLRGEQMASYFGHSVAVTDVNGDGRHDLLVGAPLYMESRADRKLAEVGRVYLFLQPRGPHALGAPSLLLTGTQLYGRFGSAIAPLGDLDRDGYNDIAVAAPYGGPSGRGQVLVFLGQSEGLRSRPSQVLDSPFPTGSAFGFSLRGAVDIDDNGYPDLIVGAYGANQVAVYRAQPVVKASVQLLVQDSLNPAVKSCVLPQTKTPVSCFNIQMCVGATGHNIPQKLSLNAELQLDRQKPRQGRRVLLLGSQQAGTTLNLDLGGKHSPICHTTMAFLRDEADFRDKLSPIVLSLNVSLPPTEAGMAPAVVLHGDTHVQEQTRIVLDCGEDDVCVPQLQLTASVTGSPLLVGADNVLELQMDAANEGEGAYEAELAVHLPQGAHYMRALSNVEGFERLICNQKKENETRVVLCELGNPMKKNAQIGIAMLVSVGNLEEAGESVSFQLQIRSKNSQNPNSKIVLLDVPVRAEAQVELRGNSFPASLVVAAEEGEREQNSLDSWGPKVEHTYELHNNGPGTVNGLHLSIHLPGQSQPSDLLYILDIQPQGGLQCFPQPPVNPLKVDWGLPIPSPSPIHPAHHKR
T2 sequence (P08514 891-1039 partner limits assumed): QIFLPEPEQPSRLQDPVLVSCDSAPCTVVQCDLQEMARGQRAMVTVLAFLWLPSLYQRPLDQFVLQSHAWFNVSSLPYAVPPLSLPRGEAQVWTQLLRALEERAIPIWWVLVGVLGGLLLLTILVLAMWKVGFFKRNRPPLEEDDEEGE
T2 sequence (P05106 27-788): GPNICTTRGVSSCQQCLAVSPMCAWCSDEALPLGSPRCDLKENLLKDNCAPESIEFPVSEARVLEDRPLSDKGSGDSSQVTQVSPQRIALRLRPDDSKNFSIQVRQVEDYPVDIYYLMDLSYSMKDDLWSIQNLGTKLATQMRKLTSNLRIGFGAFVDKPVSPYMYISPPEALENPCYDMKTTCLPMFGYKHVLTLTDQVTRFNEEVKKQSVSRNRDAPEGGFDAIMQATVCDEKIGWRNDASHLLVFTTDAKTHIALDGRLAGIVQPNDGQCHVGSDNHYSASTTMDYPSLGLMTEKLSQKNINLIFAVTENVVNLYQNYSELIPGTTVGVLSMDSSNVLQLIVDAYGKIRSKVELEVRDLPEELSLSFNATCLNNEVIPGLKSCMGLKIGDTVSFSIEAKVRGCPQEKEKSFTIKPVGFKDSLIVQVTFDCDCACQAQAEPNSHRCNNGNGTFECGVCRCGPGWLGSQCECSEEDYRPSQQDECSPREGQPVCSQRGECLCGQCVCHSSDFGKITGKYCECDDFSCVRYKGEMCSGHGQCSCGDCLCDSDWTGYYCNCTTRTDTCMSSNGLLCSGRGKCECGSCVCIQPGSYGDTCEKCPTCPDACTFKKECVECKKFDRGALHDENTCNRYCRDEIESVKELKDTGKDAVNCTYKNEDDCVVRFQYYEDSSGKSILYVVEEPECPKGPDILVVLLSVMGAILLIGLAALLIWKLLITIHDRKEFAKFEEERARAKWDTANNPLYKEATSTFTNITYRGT
T1 sequence (P08514 32-652 limits assumed): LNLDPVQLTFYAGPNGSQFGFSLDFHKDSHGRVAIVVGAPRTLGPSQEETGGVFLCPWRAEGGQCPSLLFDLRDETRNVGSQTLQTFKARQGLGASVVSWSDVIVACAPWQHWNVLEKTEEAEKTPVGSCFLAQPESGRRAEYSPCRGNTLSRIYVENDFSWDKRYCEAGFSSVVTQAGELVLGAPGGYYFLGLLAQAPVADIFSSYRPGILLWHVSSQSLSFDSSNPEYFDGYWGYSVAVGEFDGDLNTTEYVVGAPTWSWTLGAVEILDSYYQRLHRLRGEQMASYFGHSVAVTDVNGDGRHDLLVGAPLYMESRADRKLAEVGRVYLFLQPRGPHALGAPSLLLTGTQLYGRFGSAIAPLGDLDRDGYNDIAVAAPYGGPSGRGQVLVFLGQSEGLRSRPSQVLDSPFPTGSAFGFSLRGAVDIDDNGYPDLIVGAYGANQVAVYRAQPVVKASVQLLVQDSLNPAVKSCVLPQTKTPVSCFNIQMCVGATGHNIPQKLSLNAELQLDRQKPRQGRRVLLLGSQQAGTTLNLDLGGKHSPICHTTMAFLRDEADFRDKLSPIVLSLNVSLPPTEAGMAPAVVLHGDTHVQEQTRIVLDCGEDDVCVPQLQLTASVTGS
T1 sequence (P05106 27-498 limits assumed): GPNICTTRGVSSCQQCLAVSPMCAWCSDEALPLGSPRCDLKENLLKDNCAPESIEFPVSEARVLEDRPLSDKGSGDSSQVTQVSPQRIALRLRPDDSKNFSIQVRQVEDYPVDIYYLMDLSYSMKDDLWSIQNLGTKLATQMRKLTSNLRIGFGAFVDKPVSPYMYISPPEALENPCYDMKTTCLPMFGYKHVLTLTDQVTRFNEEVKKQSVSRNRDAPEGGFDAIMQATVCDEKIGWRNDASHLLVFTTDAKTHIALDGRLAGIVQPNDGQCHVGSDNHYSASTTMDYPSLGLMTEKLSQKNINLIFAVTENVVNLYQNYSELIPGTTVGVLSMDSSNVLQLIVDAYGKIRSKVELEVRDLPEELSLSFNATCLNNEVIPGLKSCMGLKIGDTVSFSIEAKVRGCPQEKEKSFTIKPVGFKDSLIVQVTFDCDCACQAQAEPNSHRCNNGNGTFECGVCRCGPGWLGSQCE

CC(C)[C@@H](NC(=O)[C@H](CC(=O)O)NC(=O)CNC(=O)[C@H](C)N)C(=O)O [AGD(v)] (H-AGD[dV]-OH)
reduction in affinity relative to AGDV (αIIbβ3 headpiece [1]; ratio of KD values): 24 fold
Kd (αIIbβ3 headpiece [1]): 217 ± 85.2 µM

CC(C)[C@H](NC(=O)[C@H](CC(=O)O)NC(=O)CNC(=O)[C@H](C)N)C(N)=O [AGDV-NH2] (H-AGDV-NH2)
Kd (αIIbβ3 headpiece [1]): 50.9 ± 13 µM

COC(=O)[C@@H](NC(=O)[C@H](CC(=O)O)NC(=O)CNC(=O)[C@H](C)N)C(C)C [AGDV-OCH3] (H-AGDV-OMe)
reduction in affinity relative to AGDV (αIIbβ3 headpiece [1]; ratio of KD values): 7.5 fold
Kd (αIIbβ3 headpiece [1]): 67.6 ± 23.3 µM

CC(C)[C@H](NC(=O)[C@H](CC(=O)O)NC(=O)CNC(=O)[C@H](C)N)C(=O)O [AGDV] (H-AGDV-OH)
less effective than GRGDSP (LIBS1 EC50) ([2]; ratio of EC50 values): ~7 times
less effective when compared with dodecapeptide (LIBS1 EC50) ([2]; ratio of EC50 values): 2.5 times
Stokes radii, DLS (αIIbβ3 headpiece [3]): 5.24 ± 0.03 nm and 5.2 nm
elution volume of αIIbβ3 headpiece (αIIbβ3 headpiece [4]): 12.19 ± 0.05 mL
Stokes radii, Size-exclusion (αIIbβ3 headpiece [4]): 5.17 nm
less potent than the dodecapeptide (αIIbβ3 headpiece [1]; in Mn2+/Ca2+, ratio of KD values): ~7 times
Kd (αIIbβ3 headpiece [1]): 9.03 ± 2.75 µM
Conformational states (molecule 1/molecule 2) (αIIbβ3 headpiece [5]; 50 mM ligand, Mn/Ca (2 mM MnCl2, 0.1 mM CaCl2), soak 1 week): State 7/state 2
Conformational states (molecule 1/molecule 2) (αIIbβ3 headpiece [5]; 50 mM ligand, Mn/Ca (2 mM MnCl2, 0.1 mM CaCl2), soak 2 h): State 6/state 3

CC(=O)N[C@@H](C)C(=O)NCC(=O)N[C@@H](CC(=O)O)C(=O)N[C@H](C(=O)O)C(C)C [Ac-AGDV, N-acetylated AGDV] (Ac-AGDV-OH)
Kd (αIIbβ3 headpiece [1]): 1 ± 0.46 µM

N=C(N)c1ccc(C(=O)NCCC(=O)N[C@@H](CC(=O)O)C(=O)N[C@@H](Cc2ccccc2)C(=O)O)cc1 [Ro-435054]
binds the high-affinity state better than the low-affinity state (αIIbβ3): ~100 fold
Kd (αIIbβ3; read-out: KD, high-affinity state of αIIbβ3): 0.006 µM
Kd (αIIbβ3; read-out: KD, low-affinity state of αIIbβ3): 0.58 µM
Conformational states (molecule 1/molecule 2) (αIIbβ3 headpiece [5]; 1 mM ligand, Mg/Ca (1 mM MgCl2, 1 mM CaCl2), soak 2 h): State 6/state 3

AGD
IC50 [6]: ~100 µM

HHLGGAKQAGDV [fibrinogen γC dodecapeptide, reference compound]
EC50 ([2]; CHO K1 αIIbβ3 transfectants, 1 mM Mg2+/1 mM Ca2+, 10 μg/ml LIBS1, 30 min, room temperature, flow cytometry, mean ± S.D., read-out: EC50, LIBS1 epitope exposure): 578 ± 222 µM
Kd (αIIbβ3 headpiece [1]): 1.27 ± 0.08 µM

RGDF [reference compound]
Stokes radii, DLS (αIIbβ3 headpiece [3]): 5.19 ± 0.04 nm
elution volume of αIIbβ3 headpiece (αIIbβ3 headpiece [4]): 12.15 ± 0.06 mL
Stokes radii, Size-exclusion (αIIbβ3 headpiece [4]): 5.23 nm
